Patent US8889878B2, “Haloalky-substituted amides as insecticides and acaricides” (Bayer CropScience AG, priority 2009, dated 2014)

Key:
[1] = system: mustard beetle (Phaedon cochleariae); assay: Phaedon test (PHAECO spray treatment), Example 7; type: in vivo; conditions: application rate 20 g/ha, china cabbage leaf discs sprayed, after 7 days
Method: Phaedon Test (PHAECO Spray Treatment)
(§1) • Solvent: 78.0 parts by weight of acetone • 1.5 parts by weight of dimethylformamide • Emulsifier: 0.5 part by weight of alkylaryl polyglycol ether
To prepare an active ingredient formulation, 1 part by weight of active ingredient is mixed with the stated amounts of solvent and emulsifier, and the concentrate is diluted with emulsifier-containing water to the desired concentration. Leaf discs from china cabbage (Brassica pekinensis) are sprayed with an active ingredient formulation of the desired concentration and, after drying, populated with larvae of the mustard beetle (Phaedon cochleariae).
After 7 days, the efficacy in % is determined. 100% means that all beetle larvae were killed; 0% means that no beetle larvae were killed.

[2] = logP by HPLC on reverse-phase column (EEC Directive 79/831 Annex V.A8); type: physicochemical
Method: The logP values reported in the above Tables and Preparation Examples were determined according to EEC Directive 79/831 Annex V.A8 by HPLC (High Performance Liquid Chromatography) on a reverse-phase column (C18). Temperature 43° C.

[3] = system: Boophilus microplus; assay: Boophilus microplus test (BOOPMI injection), Example 11; type: in vivo; conditions: application rate 20 μg/animal, injected into abdomen, after 7 days
Method: Boophilus microplus Test (BOOPMI Injection) • Solvent: dimethyl sulphoxide To prepare an appropriate active ingredient formulation, 10 mg of active ingredient are mixed with 0.5 ml of solvent and the concentrate is diluted with solvent to the desired concentration. The active ingredient solution is injected into the abdomen (Boophilus microplus), and the animals are transferred to dishes and stored in a climate-controlled room. The efficacy was assessed by the number of fertile eggs laid. After 7 days, the efficacy in % is determined. 100% means that none of the ticks has laid any fertile eggs.

[4] = system: armyworm (Spodoptera frugiperda); assay: Spodoptera frugiperda test (SPODFR spray treatment), Example 15; type: in vivo; conditions: application rate 100 g/ha, maize leaf discs sprayed, after 7 days
Method: Spodoptera frugiperda Test (SPODFR Spray Treatment)
as §1
To prepare an appropriate active ingredient formulation, 1 part by weight of active ingredient is mixed with the stated amounts of solvent and emulsifier, and the concentrate is diluted with emulsifier-containing water to the desired concentration. Leaf discs from maize (Zea mays) are sprayed with an active ingredient formulation of the desired concentration and, after drying, populated with caterpillars of the armyworm (Spodoptera frugiperda).
After 7 days, the efficacy in % is determined. 100% means that all caterpillars were killed; 0% means that no caterpillars were killed.

[5] = HPLC, C18 reverse phase, 43° C., acidic range pH 2.7, calibration with alkan-2-ones

Compound	efficacy in % [1]	logP [2, 5]	logP ([2]; HPLC-MS)	efficacy in % (fertile eggs laid) [3]	efficacy in % [4]
O=C(NC(c1cc(Cl)cc(Cl)c1)C(F)(F)F)c1cc2ccc(C(=O)NC3CC3)c(Cl)c2[nH]1 (racemic) [Ic-22]	100%	HPLC-MS: logP = 3.42; mass			
O=C(NC(c1cccc(C(F)(F)F)c1)C(F)(F)F)c1cc2cc(C(=O)NCc3ccccn3)c(Cl)cc2[nH]1 (racemic) [Ic-23]	100%	HPLC-MS: logP = 2.49; mass			
O=C(/C=C/c1ccc(C(=O)NC2CC2)c(C(F)(F)F)c1)NC(c1ccc(Cl)c(Cl)c1)C(F)(F)F (stereo not shown) [Ia-37]	100%		HPLC-MS: logP = 3.41; mass		
O=C(/C=C/c1ccc(C(=O)NC2CC2c2ccccc2)c(C(F)(F)F)c1)NC(c1cccc(C(F)(F)F)c1)C(F)(F)F (stereo not shown) [Ia-71]	100%		HPLC-MS: logP = 4.22; mass		
Cc1cc(/C=C/C(=O)NC(c2cccc(C(F)(F)F)c2)C(F)(F)F)ccc1C(=O)NC1COC1 (stereo not shown) [Ia-83]	100%		HPLC-MS: logP = 2.69 mass		
O=C(/C=C/c1ccc(C(=O)Nc2ccncc2)c(C(F)(F)F)c1)NC(c1cccc(C(F)(F)F)c1)C(F)(F)F (stereo not shown) [Ia-84]	100%		HPLC-MS: logP = 1.99 mass		
Cc1cc(/C=C/C(=O)NC(c2cccc(C(F)(F)F)c2)C(F)(F)F)ccc1C(=O)NC1CCOCC1 (stereo not shown) [Ia-86]	100%		HPLC-MS: logP = 2.89 mass		
Cc1cc(/C=C/C(=O)NC(c2cccc(C(F)(F)F)c2)C(F)(F)F)ccc1C(=O)NCc1ccc(F)cn1 (stereo not shown) [Ia-87]	100%		HPLC-MS: logP = 3.13 mass		
Cc1cc(/C=C/C(=O)NC(c2cccc(C(F)(F)F)c2)C(F)(F)F)ccc1C(=O)Nc1ccncc1 (stereo not shown) [Ia-88]	100%		HPLC-MS: logP = 1.87 mass		
CN(C(=O)c1ccc(/C=C/C(=O)NC(c2cccc(C(F)(F)F)c2)C(F)(F)F)cc1Br)c1ccccn1 (stereo not shown) [Ia-89]	100%		HPLC-MS: logP = 3.47 mass		
O=C(/C=C/c1ccc(C(=O)Nc2ccncc2)c(Br)c1)NC(c1cccc(C(F)(F)F)c1)C(F)(F)F (stereo not shown) [Ia-91]	100%		HPLC-MS: logP = 1.96 mass		
O=C(/C=C/c1ccc(C(=O)NC2CCOCC2)c(Cl)c1)NC(c1cccc(C(F)(F)F)c1)C(F)(F)F (stereo not shown) [Ia-97]	100%		HPLC-MS: logP = 2.99 mass		
O=C(/C=C/c1ccc(C(=O)Nc2ccccn2)c(Cl)c1)NC(c1cccc(C(F)(F)F)c1)C(F)(F)F (stereo not shown) [Ia-98]	100%		HPLC-MS: logP = 3.47 mass		
Cc1cc(/C=C/C(=O)NC(c2cccc(C(F)(F)F)c2)C(F)(F)F)ccc1C(=O)NC1CCC1 (stereo not shown) [Ia-101]	100%		HPLC-MS: logP = 3.53 mass		
Cc1cc(/C=C/C(=O)NC(c2cccc(C(F)(F)F)c2)C(F)(F)F)ccc1C(=O)NC(C)C (stereo not shown) [Ia-102]	100%		HPLC-MS: logP = 3.27 mass		
COC(=O)N(C)NC(=O)c1ccc(/C=C/C(=O)NC(c2cccc(C(F)(F)F)c2)C(F)(F)F)cc1Br (stereo not shown) [Ia-103]	100%		HPLC-MS: logP = 2.89 mass		
O=C(/C=C/c1ccc(C(=O)NCC(F)F)c(Br)c1)NC(c1cccc(C(F)(F)F)c1)C(F)(F)F (stereo not shown) [Ia-104]	100%		HPLC-MS: logP = 3.23 mass		
C#CCNC(=O)c1ccc(/C=C/C(=O)NC(c2cccc(C(F)(F)F)c2)C(F)(F)F)cc1Br (stereo not shown) [Ia-105]	100%		HPLC-MS: logP = 3.09 mass		
O=C(/C=C/c1ccc(C(=O)NC2CCCNC2=O)c(Cl)c1)NC(c1cccc(C(F)(F)F)c1)C(F)(F)F (stereo not shown) [Ia-106]	100%		HPLC-MS: logP = 2.61 mass		
O=C(/C=C/c1ccc(C(=O)NCC(=O)NCC(F)(F)F)c(Cl)c1)NC(c1cccc(C(F)(F)F)c1)C(F)(F)F (stereo not shown) [Ia-107]	100%		HPLC-MS: logP = 2.99 mass		
N#CCNC(=O)c1ccc(/C=C/C(=O)NC(c2cccc(C(F)(F)F)c2)C(F)(F)F)cc1C(F)(F)F (stereo not shown) [Ia-129]			HPLC-MS: logP = 3.19; mass	100%	100%
